Measured values reported in ChEMBL document CHEMBL1201862, “PubChem BioAssay data set” (2004).
Active and inactive are the calls of the source.

Tests used:
[1] = molecular target: T1, Replicative DNA helicase DnaB (Mycobacterium tuberculosis, UniProt P9WMR3); assay: DnaB intein splicing inhibitors, dose response, biochemical, cell-free fluorescence (AID 449749); assay type: functional
T1 sequence (P9WMR3 whole entry): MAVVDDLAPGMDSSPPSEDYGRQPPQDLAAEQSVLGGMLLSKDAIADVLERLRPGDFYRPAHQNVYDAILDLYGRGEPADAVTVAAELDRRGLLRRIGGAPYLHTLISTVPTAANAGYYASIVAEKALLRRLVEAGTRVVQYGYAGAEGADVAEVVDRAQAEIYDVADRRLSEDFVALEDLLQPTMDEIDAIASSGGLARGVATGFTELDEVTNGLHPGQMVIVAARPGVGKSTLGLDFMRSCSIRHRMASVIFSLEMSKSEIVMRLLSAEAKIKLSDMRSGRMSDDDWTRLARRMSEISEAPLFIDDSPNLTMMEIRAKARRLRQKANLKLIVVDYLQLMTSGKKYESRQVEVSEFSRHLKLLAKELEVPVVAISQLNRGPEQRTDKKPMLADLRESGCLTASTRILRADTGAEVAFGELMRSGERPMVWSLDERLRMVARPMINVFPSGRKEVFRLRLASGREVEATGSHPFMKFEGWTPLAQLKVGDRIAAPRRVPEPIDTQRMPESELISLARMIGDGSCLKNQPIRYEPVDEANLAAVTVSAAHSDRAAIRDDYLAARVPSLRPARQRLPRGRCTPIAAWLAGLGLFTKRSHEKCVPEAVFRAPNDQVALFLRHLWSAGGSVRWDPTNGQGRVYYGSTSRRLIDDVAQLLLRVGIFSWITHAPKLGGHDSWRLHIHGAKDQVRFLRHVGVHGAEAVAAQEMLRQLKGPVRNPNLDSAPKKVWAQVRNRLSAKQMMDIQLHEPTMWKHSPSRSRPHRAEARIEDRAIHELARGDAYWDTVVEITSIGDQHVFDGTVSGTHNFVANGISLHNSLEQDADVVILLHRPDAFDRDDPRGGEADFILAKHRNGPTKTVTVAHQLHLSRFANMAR

Protein RecA = molecular target: T2, Protein RecA (Mycobacterium tuberculosis, UniProt P9WHJ3); assay: Fluorescence Cell-Free Homogeneous Dose Retest to Identify Inhibitors of RecA-Intein Splicing Activity. [Related pubchem assays (depositor defined):AID2097, AID2223, AID489010, AID492950]; assay type: functional
T2 sequence (P9WHJ3 whole entry): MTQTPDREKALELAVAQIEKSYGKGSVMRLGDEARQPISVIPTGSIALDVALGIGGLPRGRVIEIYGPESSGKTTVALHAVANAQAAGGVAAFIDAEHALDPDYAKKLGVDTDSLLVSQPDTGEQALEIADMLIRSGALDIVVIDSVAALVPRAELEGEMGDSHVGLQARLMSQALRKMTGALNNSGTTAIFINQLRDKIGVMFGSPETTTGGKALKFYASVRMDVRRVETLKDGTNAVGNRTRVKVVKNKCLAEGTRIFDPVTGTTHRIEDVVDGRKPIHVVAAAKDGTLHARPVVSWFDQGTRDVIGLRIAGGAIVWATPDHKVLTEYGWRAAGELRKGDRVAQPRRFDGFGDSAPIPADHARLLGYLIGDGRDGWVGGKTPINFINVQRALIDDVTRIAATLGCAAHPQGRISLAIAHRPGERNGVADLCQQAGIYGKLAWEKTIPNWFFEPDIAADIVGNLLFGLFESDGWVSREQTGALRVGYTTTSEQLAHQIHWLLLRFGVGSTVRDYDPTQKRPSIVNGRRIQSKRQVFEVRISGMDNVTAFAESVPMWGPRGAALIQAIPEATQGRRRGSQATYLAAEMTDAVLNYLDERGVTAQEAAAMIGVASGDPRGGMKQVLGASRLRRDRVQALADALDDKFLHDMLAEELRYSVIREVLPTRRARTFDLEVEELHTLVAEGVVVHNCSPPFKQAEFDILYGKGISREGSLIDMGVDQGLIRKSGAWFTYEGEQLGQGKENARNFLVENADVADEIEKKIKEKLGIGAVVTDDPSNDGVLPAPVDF

Estrogen receptor = molecular target: T3, Estrogen receptor (Homo sapiens, UniProt P03372);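 note: potency for inhibiting coactivator peptide recruitment to the receptor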
T3 sequence (P03372 whole entry): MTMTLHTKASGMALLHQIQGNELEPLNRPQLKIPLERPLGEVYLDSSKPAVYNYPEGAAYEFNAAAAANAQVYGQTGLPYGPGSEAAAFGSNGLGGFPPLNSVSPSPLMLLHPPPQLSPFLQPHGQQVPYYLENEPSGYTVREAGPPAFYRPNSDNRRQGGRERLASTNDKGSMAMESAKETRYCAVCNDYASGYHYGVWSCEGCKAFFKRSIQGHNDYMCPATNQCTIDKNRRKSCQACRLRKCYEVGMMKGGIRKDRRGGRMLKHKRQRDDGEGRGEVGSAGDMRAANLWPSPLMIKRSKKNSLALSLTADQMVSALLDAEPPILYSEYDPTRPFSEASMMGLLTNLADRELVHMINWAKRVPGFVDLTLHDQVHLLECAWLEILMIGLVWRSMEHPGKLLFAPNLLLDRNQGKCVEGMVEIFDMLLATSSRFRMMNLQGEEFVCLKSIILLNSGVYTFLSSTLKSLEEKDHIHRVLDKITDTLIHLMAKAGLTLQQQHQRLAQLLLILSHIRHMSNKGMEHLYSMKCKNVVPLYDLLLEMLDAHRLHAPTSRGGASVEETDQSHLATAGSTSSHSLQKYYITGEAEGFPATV

Streptococcus = assay: Group A Streptococcus viability loss, dose response, counter-screen for streptokinase expression inhibitor project, luminescence, BacTiterGlo (AID 1915); assay type: functional, organism-based;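 note: potency for reduction of bacterial viability or growth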
[2] = molecular target: Eukaryotic translation initiation factor 4E (Mus musculus, UniProt P63073); assay: eIF4E–eIF4G protein interaction inhibitors, dose response, biochemical, TR-FRET (AID 855); assay type: functional;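 note: potency for disrupting eIF4E binding to eIF4GI seen as loss of FRET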
[3] = molecular target: DNA (cytosine-5)-methyltransferase 1 (Homo sapiens, UniProt P26358); assay: DNMT1 methyltransferase inhibitors, confirmation, biochemical, fluorescent molecular beacon (AID 602386); assay type: functional
[4] = system: Streptococcus sp. 'group A'; assay: growth inhibition of control SK(-) GAS strain, dose response, counter-screen for streptokinase expression inhibitor project, luminescence, kanamycin, BacTiterGlo, confirmation (AID 1900); assay type: functional, organism-based
[5] = molecular target: Induced myeloid leukemia cell differentiation protein Mcl-1 (Homo sapiens, UniProt Q07820); assay type: functional
HEK293 [6] = assay: NOD2 signaling inhibitors in MDP-stimulated cells, cell-based, uHTS, luminescence (AID 2001); assay type: functional; conditions: Homo sapiens
HEK293 [7] = assay: cells; assay type: functional, cell-based; conditions: Homo sapiens
HEK293 [8] = assay: NOD1 signaling inhibitors, primary screen, cell-based, luminescence, uHTS (AID 1578); assay type: functional; conditions: Homo sapiens
HEK293 [9] = assay: cells; assay type: functional, cell-based; conditions: Homo sapiens; remark: listed apart in the source
[10] = molecular target: Nucleotide-binding oligomerization domain-containing protein 2 (Homo sapiens, UniProt Q9HC29); assay: NOD2 signaling inhibitors, cell-based, luminescence, uHTS, HEK293 (AID 1566); assay type: functional
Streptokinase A = molecular target: T4, Streptokinase A (Streptococcus pyogenes serotype M1, UniProt P10520); assay: S. pyogenes streptokinase expression inhibitors, potency, dose response, plasminogen activation absorbance, OD405 (AID 1914); assay type: functional, Streptococcus pyogenes M1 GAS;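 note: secreted streptokinase activity via plasminogen activation per viability signal from cell pellet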
T4 sequence (P10520 whole entry): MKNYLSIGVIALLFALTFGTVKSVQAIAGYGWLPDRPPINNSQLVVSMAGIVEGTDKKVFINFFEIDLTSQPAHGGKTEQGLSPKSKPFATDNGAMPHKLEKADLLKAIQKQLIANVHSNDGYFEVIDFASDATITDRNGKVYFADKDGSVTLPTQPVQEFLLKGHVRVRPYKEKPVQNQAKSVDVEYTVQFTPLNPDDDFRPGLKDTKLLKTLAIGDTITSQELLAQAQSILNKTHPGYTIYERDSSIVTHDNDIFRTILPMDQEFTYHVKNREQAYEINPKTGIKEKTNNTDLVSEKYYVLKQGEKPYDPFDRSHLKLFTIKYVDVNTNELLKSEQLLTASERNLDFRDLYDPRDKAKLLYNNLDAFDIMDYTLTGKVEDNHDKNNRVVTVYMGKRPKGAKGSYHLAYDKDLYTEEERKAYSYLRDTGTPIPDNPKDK

HEK293 [11] = assay: cells; assay type: functional, cell-based; conditions: Homo sapiens; remark: listed apart in the source
[12] = control 3'UTR Renilla luciferase suppression, dose response, counter-screen for Shn3 inhibitor project, cell-based, Clone20-Shn3RL, cherry-picked (AID 624133); assay type: functional
[13] = Shn3 3'UTR reporter inhibitors, dose response, cell-based, Clone20 osteoblasts, firefly luciferase, cherry-picked (AID 624132); assay type: functional;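 note: firefly luciferase luminescence from reporter carrying the Shn3 3'UTR in osteoblasts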
[14] = HepG2 cell cytotoxicity, dose response, cytotoxicity control for Shn3 inhibitor project, CellTiter-Glo, cherry-picked (AID 624134); assay type: functional, cell-based
Troponin, cardiac muscle = Troponin, cardiac muscle (Homo sapiens, UniProt P19429+P45379+P63316); assay: Fluorescence-based biochemical high throughput dose response assay for activators of the calcium sensitivity of cardiac Regulated Thin Filaments (RTF). [Related pubchem assays (depositor defined):AID493008, AID493018, AID504382, AID504383]; assay type: protein-complex assay

Row | Structure (SMILES) | IC50 (Estrogen receptor) | EC50 (Streptococcus) | EC50 [4] | IC50 (HEK293 [6]) | IC50 (HEK293 [7]) | EC50 (HEK293 [8]) | IC50 (HEK293 [9]) | EC50 [10] | IC50 (HEK293 [11]) | also measured
1 | O=C(Oc1ccc(N2C(=O)CCC2=O)cc1)c1ccco1 | > 50 µM (not active) | – | – | – | – | – | – | – | – | AC50 [1]: 0.351 µM (inconclusive); EC50 (Protein RecA): 0.388 µM (active)
2 | Cc1ccc(NC(=O)CN2C(=O)S/C(=C/c3ccc(-c4cc(C(=O)O)ccc4C)o3)C2=O)cc1C | 18.2 µM (active) | 6.89 µM (active) | 2.31 µM (active) | – | – | – | – | – | – | IC50 [2]: 14.4 µM (active); IC50 [3]: 11.3 µM (active); IC50 [5]: 2.05 µM (active)
3 | CCN(CC)S(=O)(=O)c1cccc(C(=O)Nc2nc3cc4c(cc3s2)OCCO4)c1 | – | 7.62 µM (active) | 1.08 µM (active) | 3.47 µM (active) | 9.78 µM (active) | 3.29 µM (active) | > 20 µM (inactive) | 4.53 µM (active) | 4.3 µM (active) | EC50 (Streptokinase A): > 150 µM (not active)
4 | Cc1nc2ccc(NC(=O)c3cccc(S(=O)(=O)N(C)c4ccccc4)c3)cc2s1 | – | – | – | 5.24 µM (active) | 9.65 µM (active) | 7.57 µM (active) | 15.2 µM (active) | 7.35 µM (active) | 6.11 µM (active) | AC50 [12]: 12.8 µM (active); AC50 [13]: 7.6 µM (active); AC50 [14]: 58.6 µM (active)
5 | C[C@@H](C(=O)N1CCNCC1)n1cc(CCCN=C(N)N)nn1 | – | – | – | – | – | – | – | – | – | EC50 (Troponin, cardiac muscle): > 71.5 µM (inactive)
